Results published in patent US7115629B2, “Carbamates derived from arylalkylamines” (Laboratorios S.A.L.V.A.T., S.A., priority 2000, dated 2006).
pKi: −log10 of the molar value.

Target: T1, human M2 receptors (Homo sapiens, UniProt P08172)
T1 construct: purchased Receptor Biology; host or cells: CHO-K1 cells transfected with the human receptor (membranes)
T1 sequence (P08172 1-466): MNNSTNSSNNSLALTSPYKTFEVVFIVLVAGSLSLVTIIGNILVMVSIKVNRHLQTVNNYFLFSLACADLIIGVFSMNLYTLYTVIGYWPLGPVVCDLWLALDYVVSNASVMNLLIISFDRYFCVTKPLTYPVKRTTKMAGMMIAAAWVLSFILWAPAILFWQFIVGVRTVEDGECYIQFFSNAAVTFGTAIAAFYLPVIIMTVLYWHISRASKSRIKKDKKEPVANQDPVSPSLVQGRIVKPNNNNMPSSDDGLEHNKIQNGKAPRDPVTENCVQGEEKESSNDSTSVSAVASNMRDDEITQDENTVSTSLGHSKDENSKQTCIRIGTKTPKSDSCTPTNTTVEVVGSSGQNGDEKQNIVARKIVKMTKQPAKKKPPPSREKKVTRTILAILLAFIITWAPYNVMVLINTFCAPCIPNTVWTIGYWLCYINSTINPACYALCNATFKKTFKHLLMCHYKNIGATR
Experiment: Binding test to cloned human M2 muscarinic receptor ([3H]-NMS displacement, CHO-K1 membranes), reported as M2/M3 ratio
Conditions: value greater than 1 indicates selectivity for the M3 receptor
Procedure: (§1) Membranes from CHO—K1 cells transfected with human M2 or M3 receptors (Receptor Biology) were used. The summarised experimental procedure for both receptors was the following: membranes (15–20 μg) were incubated with [^3H]-NMS (0.3–0.5 nM) for 60 min at 25° C., in presence or absence of the antagonists. Incubation was carried out in 96 wells polystyrene microplates in a total incubation volume of 0.2 mL of PBS pH 7.4. Non specific binding was determined in parallel assays in presence of atropine (5 μM). Samples were filtered through type GF/C glass fibre, preincubated with PEI 0.3%. Filters were washed 3–4 times with 50 mM Tris-HCl, 0.9% NaCl, pH 7.4 at 4° C., and dried at 50° C. for 45 min. Filter bound radioactivity was quantified by liquid scintillation counting.
(§2) For the calculation of the inhibition constant (Ki), displacement curves were analysed by non-linear regression (GraphPad Prism). Dissociation constant (KD) of [^3H]-NMS for each receptor was obtained through the saturation curves obtained in the same conditions as the experiments carried out with the antagonists.

SMILES	M2/M3 (ratio between M2 and M3 receptor affinities)
O=C(OC1CN2CCC1CC2)N1CCc2ccccc2[C@@H]1c1ccccc1 (stereo partly shown) [YM-905, reference compound]	24
COc1ccc(F)c(CN(C(=O)OC2CN3CCC2CC3)c2ccccc2)c1 (stereo not shown) [Example 25]	19
C=C(C)C1CCC(CN(C(=O)OC2CN3CCC2CC3)c2cccc(C)c2)CC1 (stereo not shown) [Example 59]	90
Cc1cccc(N(Cc2ccc3c(c2)OCCO3)C(=O)OC2CN3CCC2CC3)c1 (stereo not shown) [Example 53]	26
Cc1cccc(N(Cc2ccc(F)cc2)C(=O)OC2C[N+]3(C)CCC2CC3)c1.[I-] (stereo not shown) [Example 67]	19
O=C(OC1CN2CCC1CC2)N(Cc1cccc(F)c1)c1cccc(F)c1 (stereo not shown) [Example 17]	196
O=C(OC1CN2CCC1CC2)N(Cc1ccccc1Br)c1ccccc1 (stereo not shown) [Example 16]	13
O=C(OC1CN2CCC1CC2)N(Cc1ccc(F)c(Cl)c1)c1ccccc1 (stereo not shown) [Example 28]	35
Cc1cccc(C)c1N(Cc1ccccc1)C(=O)OC1CN2CCC1CC2 (stereo not shown) [Example 11]	11
Cc1cccc(N(Cc2cccc(O)c2)C(=O)OC2CN3CCC2CC3)c1 (stereo not shown) [Example 46]	33
Cc1ccccc1N(Cc1ccc(CO)cc1)C(=O)OC1CN2CCC1CC2 (stereo not shown) [Example 42]	38
O=C(OC1CN2CCC1CC2)N(Cc1cc(F)c(F)c(F)c1)c1cccc(F)c1 (stereo not shown) [Example 36]	545
O=C(OC1CN2CCC1CC2)N(CC1CCCCC1)c1ccccc1F (stereo not shown) [Example 57]	300
CC(C)Oc1ccc(CN(C(=O)OC2CN3CCC2CC3)c2ccccc2)cc1 (stereo not shown) [Example 50]	26
C[N+]12CCC(CC1)C(OC(=O)N(Cc1ccccc1)c1ccccc1)C2.[I-] [Example 3, (R)-3-N-benzyl-N-phenylcarbamoyloxy)-1-methylquinuclidinium iodide]	7
O=C(O[C@H]1CN2CCC1CC2)N(Cc1ccccc1)c1c(F)cccc1F [Example 8]	11

System: M2 and M3 receptors
Experiment: not given
Conditions: background statement; compounds exhibit M3 antagonist activity; cited from earlier work

SMILES	affinity towards the M2 receptor
O=C(OC1CN2CCC1CC2)N1CCc2ccccc2[C@@H]1c1ccccc1 (stereo partly shown) [YM-905, reference compound]	without any significant affinity
NC(=O)C(c1ccccc1)(c1ccccc1)[C@@H]1CCN(CCc2ccc3c(c2)CCO3)C1 [DARIFENACIN, darifenacin]	without any significant affinity

Target: T2, human M3 receptors (Homo sapiens, UniProt P20309)
T2 construct: purchased Receptor Biology; host or cells: CHO-K1 cells transfected with the human receptor (membranes)
Experiment: Binding test to cloned human M3 muscarinic receptor ([3H]-NMS displacement, CHO-K1 membranes)
Conditions: membranes of CHO-K1 cells transfected with human M3; [3H]-NMS; mean of two independent experiments in duplicate; read-out: M3 (human M3 antagonist activity, binding affinity constant Ki)
Procedure: as §1, §2

T2 sequence (P20309 whole entry): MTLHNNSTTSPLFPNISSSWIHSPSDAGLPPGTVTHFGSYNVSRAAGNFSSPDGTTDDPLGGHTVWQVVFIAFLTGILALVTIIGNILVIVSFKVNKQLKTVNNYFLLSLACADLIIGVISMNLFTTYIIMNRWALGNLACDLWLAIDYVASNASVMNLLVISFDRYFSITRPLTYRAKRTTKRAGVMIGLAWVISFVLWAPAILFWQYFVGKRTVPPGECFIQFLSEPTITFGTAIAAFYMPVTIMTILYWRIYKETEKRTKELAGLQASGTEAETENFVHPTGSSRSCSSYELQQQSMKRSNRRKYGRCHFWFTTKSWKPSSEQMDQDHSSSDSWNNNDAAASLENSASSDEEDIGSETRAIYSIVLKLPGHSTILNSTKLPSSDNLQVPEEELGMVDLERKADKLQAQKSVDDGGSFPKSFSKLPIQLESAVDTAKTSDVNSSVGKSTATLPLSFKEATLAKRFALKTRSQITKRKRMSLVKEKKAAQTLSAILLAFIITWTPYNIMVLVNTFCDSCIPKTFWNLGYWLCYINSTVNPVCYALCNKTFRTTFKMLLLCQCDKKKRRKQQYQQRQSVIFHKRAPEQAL

SMILES	pKi
O=C(OC1CN2CCC1CC2)N1CCc2ccccc2[C@@H]1c1ccccc1 (stereo partly shown) [YM-905, reference compound]	8.76
COc1ccc(F)c(CN(C(=O)OC2CN3CCC2CC3)c2ccccc2)c1 (stereo not shown) [Example 25]	8.77
C=C(C)C1CCC(CN(C(=O)OC2CN3CCC2CC3)c2cccc(C)c2)CC1 (stereo not shown) [Example 59]	9.11
Cc1cccc(N(Cc2ccc3c(c2)OCCO3)C(=O)OC2CN3CCC2CC3)c1 (stereo not shown) [Example 53]	8.90
Cc1cccc(N(Cc2ccc(F)cc2)C(=O)OC2C[N+]3(C)CCC2CC3)c1.[I-] (stereo not shown) [Example 67]	8.42
O=C(OC1CN2CCC1CC2)N(Cc1cccc(F)c1)c1cccc(F)c1 (stereo not shown) [Example 17]	10.27
O=C(OC1CN2CCC1CC2)N(Cc1ccccc1Br)c1ccccc1 (stereo not shown) [Example 16]	8.37
O=C(OC1CN2CCC1CC2)N(Cc1ccc(F)c(Cl)c1)c1ccccc1 (stereo not shown) [Example 28]	8.82
Cc1cccc(C)c1N(Cc1ccccc1)C(=O)OC1CN2CCC1CC2 (stereo not shown) [Example 11]	8.21
Cc1cccc(N(Cc2cccc(O)c2)C(=O)OC2CN3CCC2CC3)c1 (stereo not shown) [Example 46]	9.82
Cc1ccccc1N(Cc1ccc(CO)cc1)C(=O)OC1CN2CCC1CC2 (stereo not shown) [Example 42]	8.93
O=C(OC1CN2CCC1CC2)N(Cc1cc(F)c(F)c(F)c1)c1cccc(F)c1 (stereo not shown) [Example 36]	10.40
O=C(OC1CN2CCC1CC2)N(CC1CCCCC1)c1ccccc1F (stereo not shown) [Example 57]	10.60
CC(C)Oc1ccc(CN(C(=O)OC2CN3CCC2CC3)c2ccccc2)cc1 (stereo not shown) [Example 50]	9.08
C[N+]12CCC(CC1)C(OC(=O)N(Cc1ccccc1)c1ccccc1)C2.[I-] [Example 3, (R)-3-N-benzyl-N-phenylcarbamoyloxy)-1-methylquinuclidinium iodide]	8.59
O=C(O[C@H]1CN2CCC1CC2)N(Cc1ccccc1)c1c(F)cccc1F [Example 8]	9.70
